Assay results taken from patent US5830910A (priority 1995, dated 1998).

How the values were obtained:
Assay type in all cases: cell-based, rat
[1] = system: cultured hippocampal neurons; test: calcium ionophore A23187 neurotoxicity; details: 100 nM, 1 h pretreatment
From the text: Dissociated embryonic rat hippocampal cell cultures were established and maintained. All procedures conformed with the NIH Guide for the Care and Use of Laboratory Animals and were approved by the University of Kentucky Animal Care and Use Committee. Cultures were maintained on a polyethyleneimine-coated substrate in plastic 35-mm dishes or 96 wall plates (for cell survival studies) or glass-bottom 35-mm dishes (for [Ca^2+ ]i imaging studies). The cell density was ^~ 70-100 cells/mm^2. Cells were maintained in Eagle's minimum essential medium supplemented 10% with fetal bovine serum and containing 20 mM sodium pyruvate. […] Aβ25-35 (Bachem, lot ZJ744) and Aβ1-40 (Bachem, lot ZK600) were stored in the lyophilized form, and stocks were prepared immediately before use by dissolving the peptide at a concentration of 1 mM in sterile distilled water. […] Glutamate and colchicine (Sigma) were prepared as 200-500x stocks in saline. Cytochalasins D and E (Sigma) and calcium ionophore 4-bromo-A23187 (Calbiochem) were prepared as 500x stocks in dimethyl sulfoxide. Vitamin E (α-tocopherol; Sigma) was prepared as a 500x stock in ethanol. Nordihydroguaiaretic acid and FeSo4 were prepared as 500x stocks in sterile water.
(§1) Neuronal survival was quantified by counting viable neurons in the same microscope fields (10x objective) immediately before experimental treatment and at time points after treatment. In addition, cells were grown in 96-well plates and Alamar blue fluorescence (Alamar Laboratories)was quantified by using a fluorescence plate reader. Alamar Blue is a non-fluorescent substrate that, after reduction by cell metabolites, becomes fluorescent. […] Viability of the remaining neurons was assessed by morphological criteria. […] Survival values were expressed as percentages of the initial number of neurons present before experimental treatment. […]
FIG. 7. Cultures were pretreated for 1 h with 0.2% dimethylsulfoxide (control) or 100 nM cytochalasin D. Calcium ionophore A23187 was then added at the indicated concentrations and neuronal survival was assessed 8 h later. […]

[2] = system: growth cone motility of hippocampal neurons; test: growth cone motility
[3] = system: cultured hippocampal neurons; test: neurotoxicity of combined exposure to Aβ and glutamate; details: 100 nM; 50 μM Aβ plus 20 μM glutamate, 48 h
From the text: Dissociated embryonic rat hippocampal cell cultures were established and maintained. All procedures conformed with the NIH Guide for the Care and Use of Laboratory Animals and were approved by the University of Kentucky Animal Care and Use Committee. Cultures were maintained on a polyethyleneimine-coated substrate in plastic 35-mm dishes or 96 wall plates (for cell survival studies) or glass-bottom 35-mm dishes (for [Ca^2+ ]i imaging studies). The cell density was ^~ 70-100 cells/mm^2. Cells were maintained in Eagle's minimum essential medium supplemented 10% with fetal bovine serum and containing 20 mM sodium pyruvate. […]
as §1, with “reader.” for “reader. Alamar Blue is a non-fluorescent substrate that, after reduction by cell metabolites, becomes fluorescent.”
FIG. 13. […] Neuronal survival was assessed 48 h after treatment. […]

Question: What does the source list for `C=C1[C@@H](C)[C@H]2[C@H](Cc3ccccc3)NC(=O)[C@]23[C@H](OC(C)=O)/C=C/[C@@](C)(O)C(=O)[C@@H](C)C/C=C/[C@H]3[C@@H]1O` [Cytochalasin D, cytochalasin D]?
Answer: protection against A23187 neurotoxicity [1]: essentially identical to that in control cultures; growth cone motility [2]: inhibit growth cone motility; effect on neurotoxicity of combined Aβ and glutamate [3]: attenuated significantly
